The target in assay [1] is T1, ASIC2a (Rattus norvegicus, UniProt Q62962).
T1 sequence (Q62962 1-512): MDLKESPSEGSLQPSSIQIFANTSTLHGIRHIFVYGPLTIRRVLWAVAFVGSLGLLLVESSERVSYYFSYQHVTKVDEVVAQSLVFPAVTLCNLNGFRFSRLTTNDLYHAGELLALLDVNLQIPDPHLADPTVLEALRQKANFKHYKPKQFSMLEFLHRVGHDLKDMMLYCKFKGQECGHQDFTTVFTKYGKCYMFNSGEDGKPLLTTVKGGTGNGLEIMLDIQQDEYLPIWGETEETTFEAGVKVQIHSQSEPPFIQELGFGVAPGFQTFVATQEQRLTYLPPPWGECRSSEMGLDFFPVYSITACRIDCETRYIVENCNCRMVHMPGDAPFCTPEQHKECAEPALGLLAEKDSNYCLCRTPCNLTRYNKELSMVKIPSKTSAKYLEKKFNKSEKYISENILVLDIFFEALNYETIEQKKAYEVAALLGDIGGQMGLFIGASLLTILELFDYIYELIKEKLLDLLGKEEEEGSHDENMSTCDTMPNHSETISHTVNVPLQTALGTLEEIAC
The experiment in a line: Activity at ASIC2a. In kind it is cell-based. As to conditions: inactive at ASIC2a.

Assay [2] deals with T2, rat ASIC1a (Rattus norvegicus, UniProt P55926).
T2 construct: expressed in transfected cells
T2 sequence (P55926 1-526): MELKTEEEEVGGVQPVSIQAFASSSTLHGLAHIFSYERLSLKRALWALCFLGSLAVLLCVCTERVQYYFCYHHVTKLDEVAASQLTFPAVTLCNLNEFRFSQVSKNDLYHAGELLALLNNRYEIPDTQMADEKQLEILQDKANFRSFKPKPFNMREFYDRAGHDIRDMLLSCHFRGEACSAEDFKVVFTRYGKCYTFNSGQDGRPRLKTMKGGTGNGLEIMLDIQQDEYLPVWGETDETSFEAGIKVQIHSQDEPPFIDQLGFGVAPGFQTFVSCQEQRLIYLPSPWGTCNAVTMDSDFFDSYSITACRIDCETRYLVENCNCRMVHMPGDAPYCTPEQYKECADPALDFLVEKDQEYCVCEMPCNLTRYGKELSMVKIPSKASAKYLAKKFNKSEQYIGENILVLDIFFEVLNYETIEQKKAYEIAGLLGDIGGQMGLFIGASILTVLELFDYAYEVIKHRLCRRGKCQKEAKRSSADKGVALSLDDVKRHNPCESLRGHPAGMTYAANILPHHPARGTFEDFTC
The assay is described as follows: Whole-cell patch clamp: inhibition of acid-induced current in CHO cells stably expressing rat ASIC1a. Type of assay: cell-based. The procedure:
Chinese Hamster Ovary (CHO) cells stably expressing rat ASIC1a were cultured in Ham’s F12, supplemented with 10% FBS, 1% penicillin–streptomycin and 500 µg/mL G418 and incubated at 37 °C with 5% CO2. Transient transfections of rASIC1a and cASIC1 wild-type or mutant channels in CHO cells were performed with Lipofectamine 3000 (Thermo Fisher Scientific) according to the manufacturer’s recommendations. The green fluorescent protein (GFP) cDNA (at 1/10 the amount of channel cDNA) was co-transfected with channel cDNA to aid the identification of transfected cells under the microscope in patch clamp experiments. All cDNAs were sequence verified.
Cells were freshly dissociated with CellStripper (Corning) and dispersed in a chamber on the stage of an inverted microscope. Upon formation of the whole-cell conformation, the cell was lifted from the bottom of the chamber and placed at the tip of a tubing perfusing an extracellular solution containing (in mM): 149 NaCl, 2 CaCl2, 4 KCl, 1 MgCl2, 5 glucose, 10 HEPES, pH 7.4, 310 mOsm/L. Extracellular solutions at more basic or acidic pHs were made by titrating the above pH 7.4 solution with NaOH or HCl (5 mM MES was added to solutions at pH 6.0 and lower). Pipette electrodes were filled with an intracellular solution containing (in mM): 135 KCl, 4 MgATP, 0.3 Na2GTP, 10 EGTA, and 20 HEPES, pH 7.2, 290 mOsm/L.
All recordings were performed at room temperature using an Axopatch 200B amplifier and pClamp 11 software (Molecular Devices). Currents were measured by whole-cell patch clamp, digitized at 10 kHz and lowpass filtered at 2 kHz. Series resistance was 75% compensated. Responses were elicited by rapid perfusion of acidic solutions using the SF-77B Fast-Step Perfusion device (Warner Instruments) for 40 ms once every 30 s (unless indicated otherwise) and recorded till steady state was reached. The holding potential was 0 mV unless indicated otherwise.
Baseline values (i.e., current amplitudes at the conditioning pH) were subtracted to obtain responses evoked by the test pH. Responses were normalized for each cell before averaging (see figure legends for more detail on normalization for each type of experiment). Concentration–response data were fitted to a logistic function of the form: R = (A1–A2)/(1 + (C/C0)^h)+A2, where R is the normalized response, C is either pH or compound concentration, C0 is the pH/concentration at which half-maximal response occurs (pH50 or IC50), h is the Hill coefficient, and A1 and A2 are constants. Kinetic parameters were obtained by fitting the data with either a single or double exponential function. Fitted data are shown as solid, dashed, or dotted curves.
(In general: In patch-clamp work, channel activity is measured electrically.)

Where [3] appears, read: CHO, pH 6, pH6.0, 10 nM, read-out: current inhibition, mean (source data Fig. 1e).
[4] abbreviates: CHO, pH 6, pH6.0, 30 nM, read-out: current inhibition, mean (source data Fig. 1e).
The mark [5] stands for this setting: CHO, pH 6, pH6.0, 100 nM, read-out: current inhibition, mean (source data Fig. 1e).
Setting [6] is: CHO, pH 6, pH6.0, 300 nM, read-out: current inhibition, mean (source data Fig. 1e).
Setting [7] is: CHO, pH 6, pH6.0, 1000 nM, read-out: current inhibition, mean (source data Fig. 1e).
[8] abbreviates: CHO, pH 7.1, pH7.1, 3 nM, read-out: current inhibition, mean (source data Fig. 1e).
[9] abbreviates: CHO, pH 7.1, pH7.1, 10 nM, read-out: current inhibition, mean (source data Fig. 1e).
The mark [10] stands for this setting: CHO, pH 7.1, pH7.1, 30 nM, read-out: current inhibition, mean (source data Fig. 1e).
[11] abbreviates: CHO, pH 7.1, pH7.1, 100 nM, read-out: current inhibition, mean (source data Fig. 1e).
[12] abbreviates: test pH 6.0, holding pH 8.2, WT.

Read-outs that look alike come from different tables or passages of the source.

In general, IC50 refers to the point on the concentration scale where inhibition reaches its midpoint. A lower IC50 goes with greater potency in that assay. By inhibition is commonly meant the percentage by which the read-out fell short of the control.

Turning to `COc1ccc(Oc2ccc(-c3nc4cc(C(=N)N)ccc4[nH]3)cc2)cc1OC` [JNJ-799760], the IC50 is greater than 50000 nM in assay [1]; 24.9 ± 1.3 nM in assay [2] (setting [12]); 3.6 ± 0.2 nM in assay [2] (test pH 7.1, holding pH 8.2). Moreover, the inhibition at 0.01 µM in assay [2] (setting [3]) was found to be 23.5%; in assay [2] (setting [9]), 74.6%. The values for the inhibition at 0.03 µM in assay [2] (setting [4]) and in assay [2] (setting [10]) were 45.7% and 94.4%, respectively. Also, the inhibition at 0.1 µM in assay [2] (setting [5]) turned out to be 66.3%; in assay [2] (setting [11]), 99.1%. Besides, in assay [2] (setting [6]), the inhibition at 0.3 µM was determined as 78.3%. The inhibition at 1 µM in assay [2] (setting [7]) was 80.7%. In addition, the inhibition at 0.003 µM in assay [2] (setting [8]) was determined as 45.1%. For the same molecule, the max %inhibition came out at 83.1 ± 1.2% in assay [2] (test pH 6.0, holding pH 8.2) and 100% in assay [2] (test pH 7.1, holding pH 8.2).

For the molecule `Cc1cc(N2CC(Oc3cc(F)c4c(N)n[nH]c4c3)C2)c(F)cn1` [JNJ-67869386], the IC50 was greater than 50000 nM in assay [1]; 34.4 ± 7.6 nM in assay [2] (test pH 5.0, holding pH 8.2); 28.9 ± 3.6 nM in assay [2] (setting [12]); 5.5 ± 0.4 nM in assay [2] (test pH 6.8, holding pH 8.2); 3.8 ± 0.2 nM in assay [2] (test pH 7.1, holding pH 8.2). The inhibition at 0.01 µM was 8% in assay [2] (CHO, pH 5, pH5.0, 10 nM, read-out: current inhibition, mean (source data Fig. 1e)); 17.9% in assay [2] (setting [3]); 75.6 ± 6.9% in assay [2] (CHO, pH 6.8, 10 nM, 0 mV, read-out: inhibition of pH 6.8-induced current); 78.2 ± 5% in assay [2] (CHO, pH 6.8, 10 nM, −80 mV, read-out: inhibition of pH 6.8-induced current); 62.8% in assay [2] (CHO, pH 6.8, pH6.8, 10 nM, read-out: current inhibition, mean (source data Fig. 1e)); 78.1% in assay [2] (setting [9]). Moreover, the inhibition at 0.03 µM in assay [2] (CHO, pH 5, pH5.0, 30 nM, read-out: current inhibition, mean (source data Fig. 1e)) stood at 15.3%; in assay [2] (setting [4]) it was 38.3%; in assay [2] (CHO, pH 6.8, pH6.8, 30 nM, read-out: current inhibition, mean (source data Fig. 1e)) it was 89.8%; in assay [2] (setting [10]), 96.5%. The inhibition at 0.1 µM was 20.5% in assay [2] (CHO, pH 5, pH5.0, 100 nM, read-out: current inhibition, mean (source data Fig. 1e)); 61.3% in assay [2] (setting [5]); 97.6% in assay [2] (CHO, pH 6.8, pH6.8, 100 nM, read-out: current inhibition, mean (source data Fig. 1e)); 99.8% in assay [2] (setting [11]). The inhibition at 0.3 µM worked out at 25.2% in assay [2] (CHO, pH 5, pH5.0, 300 nM, read-out: current inhibition, mean (source data Fig. 1e)) and 68.9% in assay [2] (setting [6]). Moreover, the inhibition at 1 µM in assay [2] (CHO, pH 5, pH5.0, 1000 nM, read-out: current inhibition, mean (source data Fig. 1e)) is 28.4%; in assay [2] (setting [7]) it was 71.7%. In addition, in assay [2] (CHO, pH 6, pH6.0, 3000 nM, read-out: current inhibition, mean (source data Fig. 1e)), the inhibition at 3 µM amounted to 79.2%. The inhibition at 0.001 µM in assay [2] (CHO, pH 6.8, pH6.8, 1 nM, read-out: current inhibition, mean (source data Fig. 1e)) stood at 15.3%. In addition, the inhibition at 0.003 µM in assay [2] (CHO, pH 6.8, pH6.8, 3 nM, read-out: current inhibition, mean (source data Fig. 1e)) worked out at 33.9%; in assay [2] (setting [8]), 42.7%. Also, the max %inhibition in assay [2] (test pH 5.0, holding pH 8.2) was 30.4 ± 1.8%; in assay [2] (test pH 6.0, holding pH 8.2), 76.5 ± 2.2%; in assay [2] (test pH 6.8, holding pH 8.2), 100%; in assay [2] (test pH 7.1, holding pH 8.2) it was 100%.
